Data as given in patent publication US8299111B2, “Compounds which modulate the CB2 receptor” (Boehringer Ingelheim International GmbH, priority 2006, dated 2012).

Each compound was assayed against T1, human CB2R (Homo sapiens, UniProt P34972) (assay: CB2R mediated modulation of cAMP synthesis). Conditions: found through the use of the above described assays (binding and cAMP); CHO cells expressing human CB2R, forskolin-stimulated cAMP.
T1 construct: host or cells: CHO cells
Format: cell-based
Method in brief: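 CHO cells expressing human CB2R were treated for 30 min at 37 °C with compound in buffer containing 1 mM IBMX, 0.25% BSA and 10 uM forskolin. cAMP was measured after lysis. EC50 is the concentration giving 50% inhibition of forskolin-stimulated cAMP, scaled to the level set by 1 uM CP55940, fitted by four-parameter logistic.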

T1 sequence (P34972 whole entry): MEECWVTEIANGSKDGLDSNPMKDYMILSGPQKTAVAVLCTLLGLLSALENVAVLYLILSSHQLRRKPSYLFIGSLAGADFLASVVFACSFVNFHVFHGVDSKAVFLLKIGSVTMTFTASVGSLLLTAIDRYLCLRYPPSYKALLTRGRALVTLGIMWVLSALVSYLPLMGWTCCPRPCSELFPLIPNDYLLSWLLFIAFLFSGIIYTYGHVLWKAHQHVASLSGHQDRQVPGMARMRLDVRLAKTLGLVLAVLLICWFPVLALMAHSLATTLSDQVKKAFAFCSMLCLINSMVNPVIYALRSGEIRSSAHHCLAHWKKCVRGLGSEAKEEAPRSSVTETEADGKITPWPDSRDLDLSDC

SMILES | agonistic activity
CC(C)(C)c1cc(NC(=O)C(C)(C)S(=O)(=O)c2ccc(Cl)c(Cl)c2)no1 [N-(5-tert-Butyl-isoxazol-3-yl)-2-(3,4-dichloro-benzenesulfonyl)-2-methyl-propionamide] | agonistic activity
CC(C)(C)c1cc(NC(=O)C(C)(C)S(=O)(=O)c2ccc(F)c(Cl)c2)no1 [N-(5-tert-Butyl-isoxazol-3-yl)-2-(3-chloro-4-fluoro-benzenesulfonyl)-2-methyl-propionamide] | agonistic activity
CC(C)(C)c1cc(NC(=O)C(C)(C)S(=O)(=O)c2cccc(C#N)c2)no1 [N-(5-tert-Butyl-isoxazol-3-yl)-2-(3-cyano-benzenesulfonyl)-2-methyl-propionamide] | agonistic activity
COc1ccc(S(=O)(=O)C(C)(C)C(=O)Nc2cc(C(C)(C)C)on2)cc1F [N-(5-tert-Butyl-isoxazol-3-yl)-2-(3-fluoro-4-methoxy-benzenesulfonyl)-2-methyl-propionamide] | agonistic activity
Cc1ccc(S(=O)(=O)C(C)(C)C(=O)Nc2cc(C(C)(C)C)on2)cc1F [N-(5-tert-Butyl-isoxazol-3-yl)-2-(3-fluoro-4-methyl-benzenesulfonyl)-2-methyl-propionamide] | agonistic activity
CC(C)(C)c1cc(NC(=O)C(C)(C)S(=O)(=O)c2cccc(F)c2)no1 [N-(5-tert-Butyl-isoxazol-3-yl)-2-(3-fluoro-benzenesulfonyl)-2-methyl-propionamide] | agonistic activity
CC(C)(C)c1cc(NC(=O)C(C)(C)S(=O)(=O)c2cc(Cl)c(Cl)s2)no1 [N-(5-tert-Butyl-isoxazol-3-yl)-2-(4,5-dichloro-thiophene-2-sulfonyl)-2-methyl-propionamide] | agonistic activity
CC(C)(C)c1cc(NC(=O)C(C)(C)S(=O)(=O)c2ccc(Cl)cc2F)no1 [N-(5-tert-Butyl-isoxazol-3-yl)-2-(4-chloro-2-fluoro-benzenesulfonyl)-2-methyl-propionamide] | agonistic activity
CC(C)(C)c1cc(NC(=O)C(C)(C)S(=O)(=O)c2ccc(Cl)cc2)no1 [N-(5-tert-Butyl-isoxazol-3-yl)-2-(4-chloro-benzenesulfonyl)-2-methyl-propionamide] | agonistic activity
CC(C)(C)c1cc(NC(=O)C(C)(C)S(=O)(=O)c2ccc(C#N)cc2F)no1 [N-(5-tert-Butyl-isoxazol-3-yl)-2-(4-cyano-2-fluoro-benzenesulfonyl)-2-methyl-propionamide] | agonistic activity
CC(C)(C)c1cc(NC(=O)C(C)(C)S(=O)(=O)c2ccc(C#N)cc2)no1 [N-(5-tert-Butyl-isoxazol-3-yl)-2-(4-cyano-benzenesulfonyl)-2-methyl-propionamide] | agonistic activity
CC(C)(C)c1cc(NC(=O)C(C)(C)S(=O)(=O)c2ccc(F)cc2)no1 [N-(5-tert-Butyl-isoxazol-3-yl)-2-(4-fluoro-benzenesulfonyl)-2-methyl-propionamide] | agonistic activity
CC(C)c1ccc(S(=O)(=O)C(C)(C)C(=O)Nc2cc(C(C)(C)C)on2)cc1 [N-(5-tert-Butyl-isoxazol-3-yl)-2-(4-isopropyl-benzenesulfonyl)-2-methyl-propionamide] | agonistic activity
CC(C)(C)c1cc(NC(=O)C(C)(C)S(=O)(=O)c2ccc(S(C)(=O)=O)cc2)no1 [N-(5-tert-Butyl-isoxazol-3-yl)-2-(4-methanesulfonyl-benzenesulfonyl)-2-methyl-propionamide] | agonistic activity
COc1ccc(S(=O)(=O)C(C)(C)C(=O)Nc2cc(C(C)(C)C)on2)cc1 [N-(5-tert-Butyl-isoxazol-3-yl)-2-(4-methoxy-benzenesulfonyl)-2-methyl-propionamide] | agonistic activity
CC(C)(C)c1cc(NC(=O)CS(=O)(=O)c2ccc(C(F)(F)F)cc2)no1 [N-(5-tert-Butyl-isoxazol-3-yl)-2-(4-trifluoromethyl-benzenesulfonyl)-acetamide] | agonistic activity
CC(C(=O)Nc1cc(C(C)(C)C)on1)S(=O)(=O)c1ccc(C(F)(F)F)cc1 (centres unmarked) [N-(5-tert-Butyl-isoxazol-3-yl)-2-(4-trifluoromethyl-benzenesulfonyl)-propionamide] | agonistic activity
CC(C)(C)c1cc(NC(=O)C(C)(C)S(=O)(=O)c2ccc(Cl)s2)no1 [N-(5-tert-Butyl-isoxazol-3-yl)-2-(5-chloro-thiophene-2-sulfonyl)-2-methyl-propionamide] | agonistic activity
CC(C)(C)c1cc(NC(=O)C(C)(C)S(=O)(=O)c2ccc(Cl)nc2)no1 [N-(5-tert-Butyl-isoxazol-3-yl)-2-(6-chloro-pyridine-3-sulfonyl)-2-methyl-propionamide] | agonistic activity

SMILES | agonistic activity
COc1ccc(S(=O)(=O)C(C)(C)C(=O)Nc2cc(C(C)(C)C)on2)cn1 [N-(5-tert-Butyl-isoxazol-3-yl)-2-(6-methoxy-pyridine-3-sulfonyl)-2-methyl-propionamide] | agonistic activity
CC(C)(C)c1cc(NC(=O)C(C)(C)S(=O)(=O)c2cccc(OC(F)(F)F)c2)no1 [N-(5-tert-Butyl-isoxazol-3-yl)-2-methyl-2-(3-trifluoromethoxy-benzenesulfonyl)-propionamide] | agonistic activity
CC(C)(C)c1cc(NC(=O)C(C)(C)S(=O)(=O)c2cccc(C(F)(F)F)c2)no1 [N-(5-tert-Butyl-isoxazol-3-yl)-2-methyl-2-(3-trifluoromethyl-benzenesulfonyl)-propionamide] | agonistic activity
CC(C)(C)c1cc(NC(=O)C(C)(C)S(=O)(=O)c2ccc(C(F)(F)F)cc2)no1 [N-(5-tert-Butyl-isoxazol-3-yl)-2-methyl-2-(4-trifluoromethyl-benzenesulfonyl)-propionamide] | agonistic activity
CC(C)(C)c1cc(NC(=O)C(C)(C)S(=O)(=O)c2ccc(C(F)(F)F)cn2)no1 [N-(5-tert-Butyl-isoxazol-3-yl)-2-methyl-2-(5-trifluoromethyl-pyridine-2-sulfonyl)-propionamide] | agonistic activity
Cc1ccc(S(=O)(=O)C(C)(C)C(=O)Nc2cc(C(C)(C)C)on2)cn1 [N-(5-tert-Butyl-isoxazol-3-yl)-2-methyl-2-(6-methyl-pyridine-3-sulfonyl)-propionamide] | agonistic activity
CC(C)(C)c1cc(NC(=O)C(C)(C)S(=O)(=O)c2ccc(C(F)(F)F)nc2)no1 [N-(5-tert-Butyl-isoxazol-3-yl)-2-methyl-2-(6-trifluoromethyl-pyridine-3-sulfonyl)-propionamide] | agonistic activity
CC(C)(C)c1cc(NC(=O)C(C)(C)S(=O)(=O)c2ccc3ccccc3c2)no1 [N-(5-tert-Butyl-isoxazol-3-yl)-2-methyl-2-(naphthalene-2-sulfonyl)-propionamide] | agonistic activity
CC(C)(C)c1cc(NC(=O)C(C)(C)S(=O)(=O)c2ccccn2)no1 [N-(5-tert-Butyl-isoxazol-3-yl)-2-methyl-2-(pyridine-2-sulfonyl)-propionamide] | agonistic activity
CC(C)(C)c1cc(NC(=O)C(C)(C)S(=O)(=O)c2cccnc2)no1 [N-(5-tert-Butyl-isoxazol-3-yl)-2-methyl-2-(pyridine-3-sulfonyl)-propionamide] | agonistic activity
CC(C)(C)c1cc(NC(=O)C(C)(C)S(=O)(=O)c2cccc3cccnc23)no1 [N-(5-tert-Butyl-isoxazol-3-yl)-2-methyl-2-(quinoline-8-sulfonyl)-propionamide] | agonistic activity
CC(C)(C)c1cc(NC(=O)C(C)(C)S(=O)(=O)c2cccs2)no1 [N-(5-tert-Butyl-isoxazol-3-yl)-2-methyl-2-(thiophene-2-sulfonyl)-propionamide] | agonistic activity
CC(C)(C)c1cc(NC(=O)C(C)(C)S(=O)(=O)c2ccsc2)no1 [N-(5-tert-Butyl-isoxazol-3-yl)-2-methyl-2-(thiophene-3-sulfonyl)-propionamide] | agonistic activity
Cc1ccc(S(=O)(=O)C(C)(C)C(=O)Nc2cc(C(C)(C)C)on2)cc1 [N-(5-tert-Butyl-isoxazol-3-yl)-2-methyl-2-(toluene-4-sulfonyl)-propionamide] | agonistic activity
CC(C)C(C(=O)Nc1cc(C(C)(C)C)on1)S(=O)(=O)c1ccc(C(F)(F)F)cc1 (centres unmarked) [N-(5-tert-Butyl-isoxazol-3-yl)-3-methyl-2-(4-trifluoromethyl-benzenesulfonyl)-butyramide] | agonistic activity
CC(C)C(C(=O)Nc1cc(C(C)(C)C)on1)S(=O)(=O)c1ccc(C(F)(F)F)cn1 (centres unmarked) [N-(5-tert-Butyl-isoxazol-3-yl)-3-methyl-2-(5-trifluoromethyl-pyridine-2-sulfonyl)-butyramide] | agonistic activity
CC(C)(C)c1cnc(NC(=O)C(C)(C)S(=O)(=O)c2ccc(Cl)cc2)s1 [N-(5-tert-Butyl-thiazol-2-yl)-2-(4-chloro-benzenesulfonyl)-2-methyl-propionamide] | agonistic activity
CC(C)(C)c1nnc(NC(=O)C(C)(C)S(=O)(=O)c2ccc(F)cc2F)s1 [N-(5-tert-butyl-1,3,4-thiadiazol-2-yl)-2-[(2,4-difluorophenyl)sulfonyl]-2-methylpropanamide] | agonistic activity
CC(C)(C)c1nnc(NC(=O)C(C)(C)S(=O)(=O)c2ccc(Cl)cc2F)s1 [N-(5-tert-butyl-1,3,4-thiadiazol-2-yl)-2-[(4-chloro-2-fluorophenyl)sulfonyl]-2-methylpropanamide] | agonistic activity
